Columns and labels:
Test in all cases: PDSP radioligand assay
Format in all cases: binding
[1] = target: T1, 5-HT1A (Homo sapiens, UniProt P08908)
T1 construct: purchased NIMH Psychoactive Drug Screening Program (PDSP)
Experimental: (§1) The ex vivo binding affinities of σRs of CNY‐01 and CNY‐02 were measured using a competitive radioligand binding assay.^[ [35] ^]
(§2) Details of individual binding assay conditions and protocols are available at the NIMH PDSP website: https://pdsp.unc.edu/pdspweb/.

[2] = target: T2, 5-HT1E (Homo sapiens, UniProt P28566)
T2 construct: purchased NIMH Psychoactive Drug Screening Program (PDSP)
Experimental: as §1, §2

[3] = target: 5-HT2A (Homo sapiens, UniProt P28223)
5-HT2A, sequence (P28223 whole entry, species assumed): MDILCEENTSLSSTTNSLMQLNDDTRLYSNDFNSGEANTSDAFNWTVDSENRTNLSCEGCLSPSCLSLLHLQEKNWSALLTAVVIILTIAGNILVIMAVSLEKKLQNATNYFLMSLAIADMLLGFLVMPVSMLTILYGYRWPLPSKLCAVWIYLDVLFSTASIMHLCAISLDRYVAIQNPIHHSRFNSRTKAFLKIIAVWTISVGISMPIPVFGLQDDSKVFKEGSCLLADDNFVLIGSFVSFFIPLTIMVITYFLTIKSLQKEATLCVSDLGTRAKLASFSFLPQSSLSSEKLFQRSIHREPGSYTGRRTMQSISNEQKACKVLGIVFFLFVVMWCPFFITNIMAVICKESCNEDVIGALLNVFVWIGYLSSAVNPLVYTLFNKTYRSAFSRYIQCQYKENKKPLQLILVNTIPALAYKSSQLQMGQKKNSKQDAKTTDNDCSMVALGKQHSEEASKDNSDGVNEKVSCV
Experimental: as §1, §2

[4] = target: T3, 5-HT6 (Homo sapiens, UniProt P50406)
T3 construct: purchased NIMH Psychoactive Drug Screening Program (PDSP)
T3 sequence (P50406 whole entry): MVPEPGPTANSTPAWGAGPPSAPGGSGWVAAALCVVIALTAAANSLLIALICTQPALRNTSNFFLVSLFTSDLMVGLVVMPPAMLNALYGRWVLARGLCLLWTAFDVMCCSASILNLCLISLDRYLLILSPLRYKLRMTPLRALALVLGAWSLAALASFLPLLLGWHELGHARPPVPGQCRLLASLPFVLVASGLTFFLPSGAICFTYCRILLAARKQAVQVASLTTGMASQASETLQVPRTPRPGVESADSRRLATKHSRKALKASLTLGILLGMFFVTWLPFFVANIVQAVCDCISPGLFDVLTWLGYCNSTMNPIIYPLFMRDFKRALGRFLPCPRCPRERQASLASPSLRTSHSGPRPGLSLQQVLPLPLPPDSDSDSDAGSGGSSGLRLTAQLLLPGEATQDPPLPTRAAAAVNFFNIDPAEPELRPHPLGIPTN
Experimental: as §1, §2

[5] = target: T4, Alpha1B (Homo sapiens, UniProt P35368)
T4 construct: purchased NIMH Psychoactive Drug Screening Program (PDSP)
Experimental: as §1, §2

[6] = target: T5, Alpha1D (Homo sapiens, UniProt P25100)
T5 construct: purchased NIMH Psychoactive Drug Screening Program (PDSP)
T5 sequence (P25100 whole entry): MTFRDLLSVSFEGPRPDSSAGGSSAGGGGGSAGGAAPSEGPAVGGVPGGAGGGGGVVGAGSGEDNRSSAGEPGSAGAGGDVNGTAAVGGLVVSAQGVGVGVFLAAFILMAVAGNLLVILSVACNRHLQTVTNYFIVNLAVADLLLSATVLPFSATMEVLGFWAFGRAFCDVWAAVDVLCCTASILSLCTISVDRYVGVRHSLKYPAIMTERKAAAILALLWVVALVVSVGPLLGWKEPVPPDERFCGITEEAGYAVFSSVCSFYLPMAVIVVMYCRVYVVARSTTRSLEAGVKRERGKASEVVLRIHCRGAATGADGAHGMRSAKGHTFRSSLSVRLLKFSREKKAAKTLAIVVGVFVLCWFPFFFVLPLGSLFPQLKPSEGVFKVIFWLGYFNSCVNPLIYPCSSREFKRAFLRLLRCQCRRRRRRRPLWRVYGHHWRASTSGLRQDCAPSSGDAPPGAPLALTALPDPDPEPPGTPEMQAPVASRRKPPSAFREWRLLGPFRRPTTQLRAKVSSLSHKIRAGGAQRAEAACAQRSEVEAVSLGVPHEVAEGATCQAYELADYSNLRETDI
Experimental: as §1, §2

[7] = target: T6, Alpha2B (Homo sapiens, UniProt P18089)
T6 sequence (P18089 1-450): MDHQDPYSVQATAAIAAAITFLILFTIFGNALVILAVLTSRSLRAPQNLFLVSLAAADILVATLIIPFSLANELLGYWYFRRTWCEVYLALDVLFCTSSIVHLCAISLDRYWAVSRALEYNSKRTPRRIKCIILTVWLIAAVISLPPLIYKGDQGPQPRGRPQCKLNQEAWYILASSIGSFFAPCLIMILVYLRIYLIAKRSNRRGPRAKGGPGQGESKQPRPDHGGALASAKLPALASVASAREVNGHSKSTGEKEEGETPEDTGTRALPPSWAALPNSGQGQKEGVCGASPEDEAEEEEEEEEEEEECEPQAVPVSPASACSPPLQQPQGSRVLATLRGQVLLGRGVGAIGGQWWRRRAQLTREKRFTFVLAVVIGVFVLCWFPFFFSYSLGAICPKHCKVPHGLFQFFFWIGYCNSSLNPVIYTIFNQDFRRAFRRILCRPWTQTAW
Experimental: as §1, §2

[8] = target: T7, Alpha2C (Homo sapiens, UniProt P18825)
T7 sequence (P18825 1-462): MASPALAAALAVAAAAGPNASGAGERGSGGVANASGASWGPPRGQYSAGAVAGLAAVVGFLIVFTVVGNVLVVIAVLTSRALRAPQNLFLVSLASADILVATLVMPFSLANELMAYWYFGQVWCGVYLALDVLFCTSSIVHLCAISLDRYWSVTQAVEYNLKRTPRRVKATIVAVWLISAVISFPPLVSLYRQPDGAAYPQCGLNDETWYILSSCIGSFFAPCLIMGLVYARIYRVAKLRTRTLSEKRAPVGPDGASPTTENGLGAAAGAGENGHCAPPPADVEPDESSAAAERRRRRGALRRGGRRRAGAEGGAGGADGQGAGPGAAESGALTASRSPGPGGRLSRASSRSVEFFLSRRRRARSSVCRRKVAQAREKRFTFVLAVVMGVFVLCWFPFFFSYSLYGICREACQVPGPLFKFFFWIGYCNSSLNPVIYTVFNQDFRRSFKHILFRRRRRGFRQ
Experimental: as §1, §2

[9] = target: T8, Beta1 (Homo sapiens, UniProt P08588)
T8 construct: purchased NIMH Psychoactive Drug Screening Program (PDSP)
Experimental: as §1, §2

[10] = target: T9, Beta3 (Homo sapiens, UniProt P13945)
T9 construct: purchased NIMH Psychoactive Drug Screening Program (PDSP)
T9 sequence (P13945 whole entry): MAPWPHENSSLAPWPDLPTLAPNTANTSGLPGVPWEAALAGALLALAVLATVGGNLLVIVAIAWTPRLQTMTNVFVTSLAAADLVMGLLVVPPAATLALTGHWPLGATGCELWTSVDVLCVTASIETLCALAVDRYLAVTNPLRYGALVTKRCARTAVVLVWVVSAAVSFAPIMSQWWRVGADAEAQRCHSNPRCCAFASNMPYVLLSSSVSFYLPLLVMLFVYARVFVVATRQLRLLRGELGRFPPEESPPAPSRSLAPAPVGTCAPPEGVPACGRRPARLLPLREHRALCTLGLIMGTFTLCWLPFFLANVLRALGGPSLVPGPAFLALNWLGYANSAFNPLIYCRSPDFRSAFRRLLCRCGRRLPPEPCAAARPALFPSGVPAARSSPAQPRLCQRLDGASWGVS
Experimental: as §1, §2

[11] = target: T10, D2 (Homo sapiens, UniProt P14416)
T10 construct: purchased NIMH Psychoactive Drug Screening Program (PDSP)
T10 sequence (P14416 whole entry): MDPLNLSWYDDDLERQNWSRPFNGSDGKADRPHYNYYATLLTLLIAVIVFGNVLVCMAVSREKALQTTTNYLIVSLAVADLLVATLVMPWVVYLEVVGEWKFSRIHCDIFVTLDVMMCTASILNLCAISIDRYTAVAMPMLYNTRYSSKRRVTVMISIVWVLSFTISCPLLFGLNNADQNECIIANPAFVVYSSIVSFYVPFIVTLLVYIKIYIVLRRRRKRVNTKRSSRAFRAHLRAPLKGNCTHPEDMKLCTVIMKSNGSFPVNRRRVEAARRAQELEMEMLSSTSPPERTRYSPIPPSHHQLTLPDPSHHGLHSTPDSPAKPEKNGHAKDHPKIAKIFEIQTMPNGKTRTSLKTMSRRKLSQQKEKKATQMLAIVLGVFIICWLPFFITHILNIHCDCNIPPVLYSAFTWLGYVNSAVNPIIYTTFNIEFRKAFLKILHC
Experimental: as §1, §2

[12] = target: D3 (Homo sapiens, UniProt P35462)
D3, sequence (P35462 whole entry): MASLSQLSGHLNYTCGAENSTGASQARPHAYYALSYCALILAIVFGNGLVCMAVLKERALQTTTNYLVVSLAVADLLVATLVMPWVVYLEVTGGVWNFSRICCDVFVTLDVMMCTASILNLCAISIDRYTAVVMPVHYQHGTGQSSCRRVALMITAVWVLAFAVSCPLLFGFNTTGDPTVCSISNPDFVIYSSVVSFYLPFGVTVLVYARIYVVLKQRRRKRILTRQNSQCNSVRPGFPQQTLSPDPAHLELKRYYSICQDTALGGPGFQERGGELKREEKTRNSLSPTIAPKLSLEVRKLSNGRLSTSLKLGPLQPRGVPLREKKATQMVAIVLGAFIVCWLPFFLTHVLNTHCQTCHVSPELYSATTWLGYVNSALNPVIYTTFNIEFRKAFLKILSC
Experimental: as §1, §2

[13] = target: T11, D4 (Homo sapiens, UniProt P21917)
T11 construct: purchased NIMH Psychoactive Drug Screening Program (PDSP)
T11 sequence (P21917 whole entry): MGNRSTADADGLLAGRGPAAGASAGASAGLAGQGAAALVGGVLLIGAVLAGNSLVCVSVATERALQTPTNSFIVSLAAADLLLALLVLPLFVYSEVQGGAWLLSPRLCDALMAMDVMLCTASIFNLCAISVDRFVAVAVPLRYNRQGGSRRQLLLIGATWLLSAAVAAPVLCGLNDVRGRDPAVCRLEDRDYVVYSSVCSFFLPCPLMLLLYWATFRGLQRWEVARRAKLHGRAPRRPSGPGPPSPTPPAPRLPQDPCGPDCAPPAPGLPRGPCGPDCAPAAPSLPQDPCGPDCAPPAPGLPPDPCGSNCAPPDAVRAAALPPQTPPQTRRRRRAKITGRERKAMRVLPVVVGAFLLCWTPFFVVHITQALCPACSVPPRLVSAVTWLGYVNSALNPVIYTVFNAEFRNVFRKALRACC
Experimental: as §1, §2

[14] = target: D5 (Homo sapiens, UniProt P21918)
D5, sequence (P21918 whole entry): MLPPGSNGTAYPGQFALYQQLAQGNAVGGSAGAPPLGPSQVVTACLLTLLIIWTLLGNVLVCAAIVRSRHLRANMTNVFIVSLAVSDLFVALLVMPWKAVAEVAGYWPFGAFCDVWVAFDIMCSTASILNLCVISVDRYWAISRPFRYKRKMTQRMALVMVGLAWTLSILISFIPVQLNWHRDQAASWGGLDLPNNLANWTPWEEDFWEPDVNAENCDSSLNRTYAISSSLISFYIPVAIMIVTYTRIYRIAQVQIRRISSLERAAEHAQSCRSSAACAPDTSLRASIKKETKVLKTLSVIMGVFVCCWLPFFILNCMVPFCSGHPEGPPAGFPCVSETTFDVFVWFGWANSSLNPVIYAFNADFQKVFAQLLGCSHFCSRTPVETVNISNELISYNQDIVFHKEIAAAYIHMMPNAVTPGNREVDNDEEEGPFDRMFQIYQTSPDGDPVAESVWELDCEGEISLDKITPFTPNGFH
Experimental: as §1, §2

[15] = target: T12, DOR (Homo sapiens, UniProt P41143)
T12 construct: purchased NIMH Psychoactive Drug Screening Program (PDSP)
Experimental: as §1, §2

[16] = test system: GABAA; details: 10 µM
Experimental: as §1, §2

[17] = target: H3 (Homo sapiens, UniProt Q9Y5N1)
H3, sequence (Q9Y5N1 whole entry): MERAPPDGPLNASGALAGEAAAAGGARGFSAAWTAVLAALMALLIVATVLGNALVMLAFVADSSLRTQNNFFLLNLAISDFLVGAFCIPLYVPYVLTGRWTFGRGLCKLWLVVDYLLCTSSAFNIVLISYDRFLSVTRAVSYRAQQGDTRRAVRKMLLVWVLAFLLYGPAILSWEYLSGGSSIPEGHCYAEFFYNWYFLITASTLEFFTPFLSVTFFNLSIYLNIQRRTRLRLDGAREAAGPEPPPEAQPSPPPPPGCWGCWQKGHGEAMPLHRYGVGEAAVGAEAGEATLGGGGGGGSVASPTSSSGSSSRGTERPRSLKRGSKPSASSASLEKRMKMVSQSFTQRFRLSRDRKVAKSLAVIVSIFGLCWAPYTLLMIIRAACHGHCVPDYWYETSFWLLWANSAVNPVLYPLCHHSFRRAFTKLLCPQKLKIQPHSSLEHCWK
Experimental: as §1, §2

[18] = target: T13, H4 (Homo sapiens, UniProt Q9H3N8)
T13 construct: purchased NIMH Psychoactive Drug Screening Program (PDSP)
Experimental: as §1, §2

[19] = target: T14, M1 (Homo sapiens, UniProt P11229)
T14 construct: purchased NIMH Psychoactive Drug Screening Program (PDSP)
Experimental: as §1, §2

[20] = target: T15, M2 (Homo sapiens, UniProt P08172)
T15 construct: purchased NIMH Psychoactive Drug Screening Program (PDSP)
T15 sequence (P08172 whole entry): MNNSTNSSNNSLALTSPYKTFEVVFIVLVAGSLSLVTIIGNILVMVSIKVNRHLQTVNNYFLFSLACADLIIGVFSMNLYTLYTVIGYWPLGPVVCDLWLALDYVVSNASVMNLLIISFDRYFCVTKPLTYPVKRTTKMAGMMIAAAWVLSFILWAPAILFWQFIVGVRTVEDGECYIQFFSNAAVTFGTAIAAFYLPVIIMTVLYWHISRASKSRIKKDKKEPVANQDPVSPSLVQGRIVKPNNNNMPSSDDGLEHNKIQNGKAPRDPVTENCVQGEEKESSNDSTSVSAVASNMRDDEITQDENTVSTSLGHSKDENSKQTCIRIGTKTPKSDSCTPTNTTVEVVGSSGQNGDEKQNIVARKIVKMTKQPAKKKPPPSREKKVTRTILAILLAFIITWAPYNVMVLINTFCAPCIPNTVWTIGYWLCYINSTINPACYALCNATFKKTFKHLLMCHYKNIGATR
Experimental: as §1, §2

[21] = target: T16, M5 (Homo sapiens, UniProt P08912)
T16 sequence (P08912 1-532): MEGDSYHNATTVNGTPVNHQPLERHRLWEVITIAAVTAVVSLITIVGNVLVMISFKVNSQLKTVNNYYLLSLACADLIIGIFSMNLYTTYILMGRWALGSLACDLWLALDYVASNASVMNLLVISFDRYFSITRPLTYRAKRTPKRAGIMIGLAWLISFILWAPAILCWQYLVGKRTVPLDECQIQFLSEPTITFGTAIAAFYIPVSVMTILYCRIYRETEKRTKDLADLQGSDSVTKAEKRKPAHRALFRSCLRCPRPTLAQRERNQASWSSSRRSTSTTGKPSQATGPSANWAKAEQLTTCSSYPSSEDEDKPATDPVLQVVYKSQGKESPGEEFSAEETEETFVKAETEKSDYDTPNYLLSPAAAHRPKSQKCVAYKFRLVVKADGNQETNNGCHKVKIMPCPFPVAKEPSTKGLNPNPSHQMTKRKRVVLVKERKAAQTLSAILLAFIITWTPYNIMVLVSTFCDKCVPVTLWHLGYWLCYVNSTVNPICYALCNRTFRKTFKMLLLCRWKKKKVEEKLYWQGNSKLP

[22] = target: T17, MOR (Homo sapiens, UniProt P35372)
T17 construct: purchased NIMH Psychoactive Drug Screening Program (PDSP)

T1 sequence (P08908 whole entry): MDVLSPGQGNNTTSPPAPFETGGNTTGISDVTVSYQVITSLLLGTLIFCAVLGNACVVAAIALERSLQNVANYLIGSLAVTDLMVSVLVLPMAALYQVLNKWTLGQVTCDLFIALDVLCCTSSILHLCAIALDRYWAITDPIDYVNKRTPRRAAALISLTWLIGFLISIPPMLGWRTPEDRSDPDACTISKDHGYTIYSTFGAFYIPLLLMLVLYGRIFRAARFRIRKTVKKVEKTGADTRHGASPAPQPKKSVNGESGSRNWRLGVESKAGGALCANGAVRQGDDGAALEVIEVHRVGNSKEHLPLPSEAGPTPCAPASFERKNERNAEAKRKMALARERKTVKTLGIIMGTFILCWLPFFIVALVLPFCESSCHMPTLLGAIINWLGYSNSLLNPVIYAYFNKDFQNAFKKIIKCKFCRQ

COc1ccc(-c2nc(C)c(Cl)c(OCCCN3CCCCC3)n2)cc1 [CNY-01, 5‐chloro‐2‐(4‐methoxyphenyl)‐4‐methyl‐6‐(3‐(piperidin‐1‐yl)propoxy)pyrimidine]
inhibition at 10 µM [1]: 17.5%
inhibition at 10 µM [2]: 31.2%
inhibition at 10 µM [3]: 36.3%
inhibition at 10 µM [4]: 30.1%
inhibition at 10 µM [5]: -11.4%
inhibition at 10 µM [6]: 23%
Ki [7]: 1350 nM
inhibition at 10 µM [7]: 93.1%
Ki [8]: 430 nM
inhibition at 10 µM [8]: 85.1%
inhibition at 10 µM [9]: 7.15%
inhibition at 10 µM [10]: 9.11%
inhibition at 10 µM [11]: 4.43%
Ki [12]: 521 nM
inhibition at 10 µM [12]: 65.8%
inhibition at 10 µM [13]: 48%
inhibition at 10 µM [14]: 27.2%
inhibition at 10 µM [15]: 3.77%
Mean % (inhibition) [16]: 25.49%
Ki [17]: 1060 nM
inhibition at 10 µM [17]: 62.8%
inhibition at 10 µM [18]: 24%
inhibition at 10 µM [19]: 22.3%
inhibition at 10 µM [20]: 36.4%
Ki [21]: > 10000 nM
inhibition at 10 µM [21]: 59.1%
inhibition at 10 µM [22]: -16.4%

Cc1nc(-c2ccc(Cl)cc2)nc(OCCCN2CCN(C)CC2)c1Cl [CNY-02, 5‐chloro‐2‐(4‐chlorophenyl)‐4‐methyl‐6‐(3‐(4‐methylpiperazin‐1‐yl)propoxy)pyrimidine]
inhibition at 10 µM [1]: -2.49%
inhibition at 10 µM [2]: 27.8%
Ki [3]: 466 nM
inhibition at 10 µM [3]: 85.5%
inhibition at 10 µM [4]: 28.1%
inhibition at 10 µM [5]: -26.1%
inhibition at 10 µM [6]: -14.8%
Ki [7]: 3390 nM
inhibition at 10 µM [7]: 68.4%
Ki [8]: 3770 nM
inhibition at 10 µM [8]: 52.4%
inhibition at 10 µM [9]: 3.55%
inhibition at 10 µM [10]: -3.01%
inhibition at 10 µM [11]: -0.57%
Ki [12]: 4910 nM
inhibition at 10 µM [12]: 66.1%
inhibition at 10 µM [13]: 17.8%
Ki [14]: > 10 µM
inhibition at 10 µM [14]: 58%
inhibition at 10 µM [15]: 1.3%
Mean % (inhibition) [16]: 32.06%
inhibition at 10 µM [17]: 42.9%
inhibition at 10 µM [18]: 23.3%
inhibition at 10 µM [19]: 36%
inhibition at 10 µM [20]: 29.1%
Ki [21]: 2500 nM
inhibition at 10 µM [21]: 83.3%
inhibition at 10 µM [22]: -14.4%
